Where “and” joins values, the source holds several entries; their conditions need not be identical. Identical values can stand only once.
What was measured:
[1] = refractive index (Na D-line) (dimensionless); xn = mol fraction of the nth substance listed; details: 298.15 K, 101.3 kPa, Liquid, Standard Abbe refractometry
[2] = relative permittivity at zero frequency (dimensionless); xn = mol fraction of the nth substance listed; details: 298.15 K, 101.3 kPa, Liquid, Coaxial cylinder capacitor
[3] = refractive index (Na D-line) (dimensionless); details: 298.15 K; 101.3 kPa; Liquid; Standard Abbe refractometry
[4] = relative permittivity at zero frequency (dimensionless); details: 298.15 K; 101.3 kPa; Liquid; Coaxial cylinder capacitor
[5] = 298.15 K; 101.3 kPa; Liquid; Vibrating tube method
[6] = xn = mol fraction of the nth substance listed; details: 298.15 K, 101.3 kPa, Liquid, Vibrating tube method

O=C1CCCCC1 [cyclohexanone] + OC1CCCCC1
x2 = 0
Details | refractive index | relative permittivity at zero frequency
[1] | 1.4485 | –
[2] | – | 15.81

C1CCCCC1 [cyclohexane] + OC1CCCCC1
x2 = 0
Details | refractive index | relative permittivity at zero frequency
[1] | 1.4235 | –
[2] | – | 2.021

OC1CCCCC1 [cyclohexanol]
Details | refractive index | relative permittivity at zero frequency
[3] | 1.4646 | –
[4] | – | 15.71

O=C1CCCC1 [cyclopentanone] + OC1CCCCC1
Details | refractive index, [1] | relative permittivity at zero frequency, [2]
x2 = 0 | 1.4347 | 13.52
x2 = 0.1 | 1.4372 | 13.1
x2 = 0.2 | 1.4397 | 12.78
x2 = 0.3 | 1.4423 | 12.55
x2 = 0.4 | 1.445 | 12.42
x2 = 0.5 | 1.4479 | 12.43
x2 = 0.6 | 1.4509 | 12.61
x2 = 0.7 | 1.4541 | 12.99
x2 = 0.8 | 1.4575 | 13.59
x2 = 0.9 | 1.461 | 14.48

CCCCCCCCO [octan-1-ol]
Details | mass density [kg/m3] | refractive index | relative permittivity at zero frequency
[3] | – | 1.4276 | –
[4] | – | – | 9.85
[5] | 821.98 | – | –

O=C1CCCCC1 [cyclohexanone] + CCCCCCCCCCO
Details | mass density, [6] [kg/m3] | refractive index, [1] | relative permittivity at zero frequency, [2]
x2 = 0 | 942.47 | 1.4485 | 15.81
x2 = 0.1 | 922.31 | 1.4458 | 14.59
x2 = 0.2 | 904.8 | 1.4436 | 13.46
x2 = 0.3 | 889.41 | 1.4416 | 12.41
x2 = 0.4 | 875.85 | 1.4399 | 11.44
x2 = 0.5 | 863.79 | 1.4385 | 10.57
x2 = 0.6 | 853.13 | 1.4374 | 9.81
x2 = 0.7 | 843.78 | 1.4364 | 9.15
x2 = 0.8 | 836.26 | 1.4358 | 8.59
x2 = 0.9 | 830.72 | 1.4354 | 8.12

OC1CCCCC1 [cyclohexanol] + O=C1CCCCC1
Details | refractive index, [1] | relative permittivity at zero frequency, [2]
x1 = 0.1 | 1.4498 | 15.16
x1 = 0.2 | 1.4512 | 14.63
x1 = 0.3 | 1.4527 | 14.24
x1 = 0.4 | 1.4542 | 13.99
x1 = 0.5 | 1.4558 | 13.91
x1 = 0.6 | 1.4574 | 13.98
x1 = 0.7 | 1.4591 | 14.2
x1 = 0.8 | 1.4608 | 14.57
x1 = 0.9 | 1.4626 | 15.08
x1 = 1 | 1.4646 | 15.71

O=C1CCCC1 [cyclopentanone]
Details | refractive index | relative permittivity at zero frequency
[3] | 1.4347 | –
[4] | – | 13.52

CCCCCCO [hexan-1-ol] + O=C1CCCCC1
x1 = 1
Details | mass density [kg/m3] | refractive index | relative permittivity at zero frequency
[1] | – | 1.4161 | –
[2] | – | – | 13.06
[6] | 815.99 | – | –

O=C1CCCCC1 [cyclohexanone] + CCCCO
Details | mass density, [6] [kg/m3] | refractive index, [1] | relative permittivity at zero frequency, [2]
x2 = 0 | 942.47 | 1.4485 | 15.81
x2 = 0.1 | 932.83 | 1.4441 | 15.3
x2 = 0.2 | 922.35 | 1.4396 | 14.95
x2 = 0.3 | 910.57 | 1.4347 | 14.71
x2 = 0.4 | 897.77 | 1.4301 | 14.62
x2 = 0.5 | 883.98 | 1.4253 | 14.71
x2 = 0.6 | 869.51 | 1.4204 | 14.97
x2 = 0.7 | 854.54 | 1.4147 | 15.39
x2 = 0.8 | 838.96 | 1.4086 | 15.97
x2 = 0.9 | 822.78 | 1.4035 | 16.68

O=C1CCCCC1 [cyclohexanone] + CCO
Details | mass density, [6] [kg/m3] | refractive index, [1] | relative permittivity at zero frequency, [2]
x2 = 0 | 942.47 | 1.4485 | 15.81
x2 = 0.1 | 938.01 | 1.4449 | 15.84
x2 = 0.2 | 930.92 | 1.4401 | 15.98
x2 = 0.3 | 921.48 | 1.4339 | 16.36
x2 = 0.4 | 910.02 | 1.4268 | 16.97
x2 = 0.5 | 896.25 | 1.4187 | 17.76
x2 = 0.6 | 879.92 | 1.4094 | 18.72
x2 = 0.7 | 860.95 | 1.3988 | 19.88
x2 = 0.8 | 839.21 | 1.3869 | 21.19
x2 = 0.9 | 814.29 | 1.3739 | 22.68

C1CCCCC1 [cyclohexane] + O=C1CCCCC1
x2 = 0
Details | refractive index | relative permittivity at zero frequency
[1] | 1.4235 | –
[2] | – | 2.021 and 2.02

CCCCCCCCCCO [decan-1-ol] + O=C1CCCCC1
x1 = 1
Details | mass density [kg/m3] | refractive index | relative permittivity at zero frequency
[1] | – | 1.4352 | –
[2] | – | – | 7.74
[6] | 826.71 | – | –

CCCCCCO [hexan-1-ol]
Details | mass density [kg/m3] | refractive index | relative permittivity at zero frequency
[3] | – | 1.4161 | –
[4] | – | – | 13.06
[5] | 815.99 | – | –

CCCCO [butan-1-ol] + O=C1CCCCC1
x1 = 1
Details | mass density [kg/m3] | refractive index | relative permittivity at zero frequency
[1] | – | 1.3971 | –
[2] | – | – | 17.49
[6] | 805.92 | – | –

O=C1CCCCC1 [cyclohexanone] + C1CCCCC1
Details | refractive index, [1] | relative permittivity at zero frequency, [2]
x1 = 0.02 | 1.4239 | 2.189
x1 = 0.04 | 1.4243 | 2.364
x1 = 0.05 | 1.4245 | 2.467
x1 = 0.06 | 1.4247 | 2.563
x1 = 0.08 | 1.4251 | 2.746
x1 = 0.1 | 1.4255 and 1.4254 | 2.932 and 3
x1 = 0.2 | 1.4276 | 4.12
x1 = 0.3 | 1.4298 | 5.35
x1 = 0.4 | 1.4322 | 6.66
x1 = 0.5 | 1.4347 | 8.03
x1 = 0.6 | 1.4372 | 9.45
x1 = 0.7 | 1.4399 | 10.94
x1 = 0.8 | 1.4427 | 12.49
x1 = 0.9 | 1.4456 | 14.11
x1 = 1 | 1.4485 | 15.81

O=C1CCCCC1 [cyclohexanone] + CCCCCCCCO
Details | mass density, [6] [kg/m3] | refractive index, [1] | relative permittivity at zero frequency, [2]
x2 = 0 | 942.47 | 1.4485 | 15.81
x2 = 0.1 | 924.71 | 1.4456 | 14.72
x2 = 0.2 | 908.6 | 1.443 | 13.74
x2 = 0.3 | 893.85 | 1.4403 | 12.87
x2 = 0.4 | 880.35 | 1.438 | 12.12
x2 = 0.5 | 867.97 | 1.4358 | 11.47
x2 = 0.6 | 856.69 | 1.4338 | 10.93
x2 = 0.7 | 846.41 | 1.4319 | 10.5
x2 = 0.8 | 837.29 | 1.4303 | 10.18
x2 = 0.9 | 829.11 | 1.4289 | 9.97

CCCCCCCCCCO [decan-1-ol]
Details | mass density [kg/m3] | refractive index | relative permittivity at zero frequency
[3] | – | 1.4352 | –
[4] | – | – | 7.74
[5] | 826.71 | – | –

O=C1CCCC1 [cyclopentanone] + C1CCCCC1
Details | refractive index, [1] | relative permittivity at zero frequency, [2]
x1 = 0.1 | 1.4236 | 2.78
x1 = 0.2 | 1.4239 | 3.61
x1 = 0.3 | 1.4244 | 4.51
x1 = 0.4 | 1.4252 | 5.51
x1 = 0.5 | 1.4262 | 6.6
x1 = 0.6 | 1.4274 | 7.78
x1 = 0.7 | 1.4289 | 9.06
x1 = 0.8 | 1.4306 | 10.45
x1 = 0.9 | 1.4325 | 11.94
x1 = 1 | 1.4347 | 13.52

CCO [ethanol]
Details | mass density [kg/m3] | refractive index | relative permittivity at zero frequency
[3] | – | 1.3594 | –
[4] | – | – | 24.37
[5] | 785.26 | – | –

C1CCCCC1 [cyclohexane] + O=C1CCCC1
x2 = 0
Details | refractive index | relative permittivity at zero frequency
[1] | 1.4235 | –
[2] | – | 2.02

OC1CCCCC1 [cyclohexanol] + C1CCCCC1
Details | refractive index, [1] | relative permittivity at zero frequency, [2]
x1 = 0.02 | 1.424 | 2.084
x1 = 0.04 | 1.4245 | 2.151
x1 = 0.05 | 1.4247 | 2.184
x1 = 0.06 | 1.425 | 2.219
x1 = 0.08 | 1.4255 | 2.285
x1 = 0.1 | 1.426 | 2.354

CCO [ethanol] + O=C1CCCCC1
x1 = 1
Details | mass density [kg/m3] | refractive index | relative permittivity at zero frequency
[1] | – | 1.3594 | –
[2] | – | – | 24.37
[6] | 785.26 | – | –

CCCCCCCCO [octan-1-ol] + O=C1CCCCC1
x1 = 1
Details | mass density [kg/m3] | refractive index | relative permittivity at zero frequency
[1] | – | 1.4276 | –
[2] | – | – | 9.85
[6] | 821.98 | – | –

C1CCCCC1 [cyclohexane]
Details | refractive index | relative permittivity at zero frequency
[3] | 1.4235 | –
[4] | – | 2.021 and 2.02

CCCCO [butan-1-ol]
Details | mass density [kg/m3] | refractive index | relative permittivity at zero frequency
[3] | – | 1.3971 | –
[4] | – | – | 17.49
[5] | 805.92 | – | –

O=C1CCCCC1 [cyclohexanone] + CCCCCCO
Details | mass density, [6] [kg/m3] | refractive index, [1] | relative permittivity at zero frequency, [2]
x2 = 0 | 942.47 | 1.4485 | 15.81
x2 = 0.1 | 927.39 | 1.4444 | 14.93
x2 = 0.2 | 912.83 | 1.4405 | 14.2
x2 = 0.3 | 898.77 | 1.4367 | 13.59
x2 = 0.4 | 885.19 | 1.4332 | 13.13
x2 = 0.5 | 872.11 | 1.4299 | 12.79
x2 = 0.6 | 859.53 | 1.4267 | 12.58
x2 = 0.7 | 847.55 | 1.4237 | 12.5
x2 = 0.8 | 836.36 | 1.4209 | 12.57
x2 = 0.9 | 825.91 | 1.4184 | 12.76

O=C1CCCCC1 [cyclohexanone]
Details | mass density [kg/m3] | refractive index | relative permittivity at zero frequency
[3] | – | 1.4485 | –
[4] | – | – | 15.81
[5] | 942.47 | – | –

OC1CCCCC1 [cyclohexanol] + O=C1CCCC1
x1 = 1
Details | refractive index | relative permittivity at zero frequency
[1] | 1.4646 | –
[2] | – | 15.71

From the NIST ThermoML archive (doi:10.1021/acs.jced.8b00755)
